Results reported in ChEMBL document CHEMBL1255445, “Evaluation of nucleoside hydrolase inhibitors for treatment of African trypanosomiasis” (Antimicrob Agents Chemother, 2010).
Calls of active or inactive are those of the source.

Key:
[1] = Cytotoxicity against human MRC5 SV2 cells after 48 hrs; assay type: cell-based; settings: MRC5, 48 h
[2] = tested on: Trypanosoma brucei brucei; assay: Antitrypanosomal activity against suramin sensitive Trypanosoma brucei brucei Lister 427 assessed as reduction in parasite growth after 3 days by fluorometrically; assay type: functional, organism-based; settings: Lister 427, 72 h
Leishmania infantum = assay: Antileishmanial activity against Leishmania infantum MHOM/MA/67/ITMAP263 intracellular amastigotes assessed as reduction in parasite growth after 3 days by fluorometrically; assay type: functional, organism-based
[3] = Inhibition of Trypanosoma vivax Inosine-adenosine-guanosine-nucleoside hydrolase
[4] = Inhibition of Trypanosoma brucei brucei inosine-adenosine-guanosine nucleoside hydrolase (IAG-NH)
Trypanosoma cruzi = assay: Antitrypanosomal activity against Trypanosoma cruzi Tulahuen CL2 s-galactosidase strain assessed as reduction in parasite growth after 3 days by fluorometrically; assay type: functional, organism-based
Plasmodium falciparum = assay: Antiparasitic activity against chloroquine-sensitive Plasmodium falciparum Ghana assessed as reduction in parasite growth after 3 days by fluorimetry; assay type: functional, organism-based
[5] = Inhibition of human purine nucleoside phosphorylase
[6] = Inhibition of Trypanosoma brucei brucei Inosine guanosine nucleoside hydrolase
[7] = tested on: Trypanosoma brucei brucei; assay: Antitrypanosomal activity against suramin sensitive Trypanosoma brucei brucei Lister 427 infected in Swiss Webster mouse assessed as parasite clearance in blood at 50 mg/kg treated orally for 1 day followed by intraperitoneally for 4 days measured on 14 days post-infection; assay type: functional, organism-based; parameters: dose 50 mg/kg
[8] = tested on: Trypanosoma brucei brucei; assay: Antitrypanosomal activity against suramin sensitive Trypanosoma brucei brucei Lister 427 infected in Swiss Webster mouse assessed as parasite clearance in blood at 50 mg/kg treated orally for 1 day followed by intraperitoneally for 4 days measured on 21 days post-infection; assay type: functional, organism-based; parameters: dose 50 mg/kg
[9] = tested on: Trypanosoma brucei brucei; assay: Antitrypanosomal activity against suramin sensitive Trypanosoma brucei brucei Lister 427 assessed as parasite killing at 10 uM after 48 hrs; assay type: functional
[10] = Inhibition of Trypanosoma brucei brucei Lister 427 H2 transporter by scintillation counting
[11] = tested on: Trypanosoma brucei brucei; assay: Antitrypanosomal activity against suramin sensitive Trypanosoma brucei brucei Lister 427 infected in Swiss Webster mouse assessed as parasite clearance in blood at 50 mg/kg treated orally for 1 day followed by intraperitoneally for 4 days measured on 10 days post-infection; assay type: functional, organism-based; parameters: dose 50 mg/kg
[12] = tested on: Trypanosoma brucei brucei; assay: Antitrypanosomal activity against suramin sensitive Trypanosoma brucei brucei Lister 427 assessed as parasite killing at 1 uM after 24 hrs; assay type: functional, organism-based
[13] = tested on: Trypanosoma brucei brucei; assay: Antitrypanosomal activity against suramin sensitive Trypanosoma brucei brucei Lister 427 infected in Swiss Webster mouse assessed as mouse survival at 50 mg/kg treated 1 day po and for 4 days in ip measured on 21 days after infectio; assay type: functional
[14] = tested on: Trypanosoma brucei rhodesiense; assay: Antitrypanosomal activity against Trypanosoma brucei rhodesiense assessed as reduction in parasite growth after 3 days by fluorometrically; assay type: functional, organism-based; settings: 72 h
[15] = tested on: Trypanosoma brucei brucei; assay: Antitrypanosomal activity against suramin sensitive Trypanosoma brucei brucei Lister 427 assessed as reduction in parasite growth at > 5 uM by Alamar blue assay; assay type: functional, organism-based
[16] = tested on: Trypanosoma brucei brucei; assay: Antitrypanosomal activity against suramin sensitive Trypanosoma brucei brucei Lister 427 assessed as reduction in viability and mortality up to 20 uM over 7 hrs by in vitro lysis assay; assay type: functional, organism-based
[17] = Inhibition of Trypanosoma brucei brucei Lister 427 Nucleoside/nucleobase transporter P2 transporter by scintillation counting
[18] = Inhibition of Trypanosoma brucei brucei Lister 427 Nucleoside transporter P1 by scintillation counting
[19] = tested on: Trypanosoma brucei brucei; assay: Antitrypanosomal activity against suramin sensitive Trypanosoma brucei brucei Lister 427 assessed as parasite killing at 0.25 uM within 5 hrs; assay type: functional, organism-based

SMILES | IC50 [2] [µM] | Ki [3] [µM] | Ki [4] [µM] | Ki [5] [µM] | Ki [6] [µM] | Ki [18] [µM] | IC50 [1] [µM] | Activity (Leishmania infantum) | Activity (Trypanosoma cruzi) | Activity (Plasmodium falciparum) | also measured
Nc1ncnc2c(C3N[C@H](CO)[C@@H](O)[C@H]3O)c[nH]c12 (stereo partly drawn) [IMMUCILLIN A] | > 64 | 0.0062 | 0.0009 | > 10 | 0.0044 | – | > 64 | inactive | inactive | inactive | –
Nc1ncnc2c(CN3C[C@H](O)[C@H](O)[C@H]3CO)c[nH]c12 | 0.49 | 0.0041 | 0.018 | 22.5 | 32 | 360 | > 64 | inactive | inactive | inactive | Activity [7]: Active; Activity [8]: Active; Activity [9]: 75%; Ki [10]: 590 µM; Activity [11]: Active; Activity [12]: Active; Activity [13]: 75%; IC50 [14]: 0.26 µM; Activity [15]: Active; Activity [16]: inactive; Ki [17]: 8.2 µM; Activity [19]: Active
OC[C@@H]1[C@@H](O)[C@@H](O)CN1Cc1c[nH]c2c(O)ncnc12 | > 64 | 0.0044 | 0.03 | 0.0058 | 138 | > 1000 | > 64 | inactive | inactive | inactive | –
O=c1[nH]cnc2c(CN3C[C@H](O)[C@H](O)[C@H]3CO)csc12 | > 34 | 0.02 | 0.19 | 77.6 | 120 | 300 | > 64 | inactive | inactive | inactive | –
COc1ccnc2c(CN3C[C@H](O)[C@H](O)[C@H]3CO)cccc12 | > 64 | 0.029 | – | > 1000 | – | – | > 64 | inactive | inactive | inactive | –
O=c1[nH]cnc2c([C@@H]3N[C@H](CO)[C@@H](O)[C@H]3O)c[nH]c12 [FORODESINE] | > 64 | 0.0062 | 0.024 | – | 0.009 | – | > 64 | inactive | inactive | inactive | –
Nc1ncnc2c(CN3C[C@H](O)[C@H](O)[C@H]3CO)csc12 | > 64 | 0.019 | 0.056 | 1000 | 31 | 540 | > 64 | inactive | inactive | inactive | Ki [17]: 125 µM

The next lines start with results.

IC50 [2] [µM] | Ki [3] [µM] | Ki [4] [µM] | Ki [5] [µM] | Ki [6] [µM] | Ki [18] [µM] | SMILES | IC50 [1] [µM] | Activity (Leishmania infantum) | Activity (Trypanosoma cruzi) | Activity (Plasmodium falciparum) | also measured
> 64 | 0.011 | 0.446 | > 1000 | 11 | – | OC[C@@H]1[C@@H](O)[C@@H](O)CN1Cc1cccc2cccnc12 | > 64 | inactive | inactive | inactive | –
> 64 | 0.058 | – | > 1000 | – | – | OC[C@@H]1[C@@H](O)[C@@H](O)CN1Cc1cccc2cncnc12 | > 64 | inactive | inactive | inactive | –
> 64 | 0.04 | 0.56 | > 1000 | 14 | 810 | Nc1nc2c(CN3C[C@H](O)[C@H](O)[C@H]3CO)cccc2s1 | > 64 | inactive | inactive | inactive | –
